According to PMC8304660, “Identification of Erythromycin and Clarithromycin Metabolites Formed in Chicken Liver Microsomes Using Liquid Chromatography–High-Resolution Mass Spectrometry” (Foods, 2021):
Where “and” joins values, the source holds several entries; their conditions need not be identical. Equal values may be shown once.

Experiments:
[1] = In vitro incubation in chicken liver microsomes with or without NADPH, LC/ESI-HR-MS analysis; format: in vitro ADME; conditions: for Remaining Content −Cofactor, Mean ± SD (%) / Remaining Content (%) −Cofactor, 1 / Remaining Content (%) −Cofactor, 2 / Remaining Content (%) −Cofactor, 3 / Remaining Content +Cofactor, Mean ± SD (%) / Remaining Content (%) +Cofactor, 1 / Remaining Content (%) +Cofactor, 2 / Remaining Content (%) +Cofactor, 3: chicken liver microsomes (CLM), 60 min vs 0 min incubation; for Remaining Content −Cofactor, Mean ± SD (%) / Remaining Content (%) −Cofactor, 1 / Remaining Content (%) −Cofactor, 2 / Remaining Content (%) −Cofactor, 3: no NADPH (control); for Remaining Content −Cofactor, Mean ± SD (%) / Remaining Content +Cofactor, Mean ± SD (%): mean of 3; for Remaining Content (%) −Cofactor, 1 / Remaining Content (%) +Cofactor, 1: replicate 1; for Remaining Content (%) −Cofactor, 2 / Remaining Content (%) +Cofactor, 2: replicate 2; for Remaining Content (%) −Cofactor, 3 / Remaining Content (%) +Cofactor, 3: replicate 3; for Remaining Content +Cofactor, Mean ± SD (%) / Remaining Content (%) +Cofactor, 1 / Remaining Content (%) +Cofactor, 2 / Remaining Content (%) +Cofactor, 3: with NADPH cofactor; on Remaining Content (%) +Cofactor, 2: tested at 1 µM; on Remaining Content (%) +Cofactor, 3: tested at 1 µM; on Remaining Content (%) −Cofactor, 2: tested at 1 µM; on Remaining Content (%) −Cofactor, 3: tested at 1 µM; on Remaining Content +Cofactor, Mean ± SD (%): tested at 1 µM; on Remaining Content −Cofactor, Mean ± SD (%): tested at 1 µM
Protocol: The incubation system (100 μL) contained 65 μL of potassium phosphate buffer (0.1 M, pH 7.4), 20 μL of chicken liver microsomes (5 mg/mL), 5 μL of a compound (20 μM) and […]. After a 5 min preincubation period at 37 °C, the reaction was started by introducing 10 μL of NADPH (10 mM) as the cofactor solution. The final study groups were divided into cofactor and no cofactor (control) groups. After preincubation for 5 min, 10 μL of potassium phosphate buffer (0.1 M, pH 7.4) was added to the control group. […] For 0 min samples, the reaction was quenched immediately after the 5-min preincubation, followed by the addition of 10 μL of NADPH (10 mM) and 10 μL of potassium phosphate buffer (0.1 M, pH 7.4) to the cofactor and control groups, respectively. Following brief sonication (5 min) and vortexing (5 min), the mixtures were centrifuged for 30 min at 3000 rpm and 4 °C. The supernatant was transferred to an Agilent 96-well plate and then analysed on an Agilent 6530 Q-TOF LC-MS/MS instrument.
Liquid chromatographic separation and mass spectrometric detection were performed on an Agilent 1200 series HPLC system and an Agilent 6530 Q-TOF LC-MS/MS system equipped with a dual AJS ESI ion source. Chromatographic separation was performed on an Agilent Eclipse Plus C18 column (100 mm × 2.1 mm; i.d. 3.5 µm) by gradient elution with a mobile phase consisting of 0.1 vol.% formic acid in water (A) and ACN (B) at 40 °C: 0–2 min, 5 vol.% B; 2–3 min, 50 vol.% B; 3–4 min, 75 vol.% B; and 4-5 min, 5 vol.% B. The injection volume was 5 μL with a flow rate of 0.4 mL/min. Before sample injection, the instrument was equilibrated under the initial gradient conditions (A:B = 95:5, v/v) and the above-mentioned column temperature and flow rate conditions. HR-MS detection was carried out in positive ionization mode with the following ion source parameters: capillary voltage, 4000 V; drying gas, 12 L/min and 325 °C; nebulizer gas, 35 psi; and sheath gas, 10 L/min and 350 °C. Mass spectra were acquired in positive ion auto MS/MS mode (F, 100 V; CE, 0 eV) with a full scan range of m/z (100–1000) and a mass scan rate of 5 spectra/s. The mass spectrometer was run in an extended dynamic range mode with a mass range of m/z 50–3200. The mass resolving power was greater than 12,000 FWHM at m/z 1552.
The data were analysed using Agilent MassHunter Quantitative Analysis software (version B.05.00) and Agilent MassHunter Metabolite ID software (version B.04.00) (Santa Clara, CA, USA). The remaining content was evaluated by dividing the ratio of the response of the target compound to the response of the IS at 60 min of incubation by the ratio of the response of the target compound to the response of the IS at 0 min of incubation in the cofactor group or control group.

[2] = tested on: CYP3A4; design: method as in PMID 1732074, PMID 1976065; conditions: midazolam as the CYP3A4 substrate; cited from earlier work
[3] = tested on: P-GP; design: method as in PMID 1732074, PMID 1976065; conditions: cited from earlier work

Remaining Content −Cofactor, Mean ± SD (%) [1]	Remaining Content (%) −Cofactor, 1 [1]	Remaining Content (%) −Cofactor, 2 [1]	Remaining Content (%) −Cofactor, 3 [1]	Remaining Content +Cofactor, Mean ± SD (%) [1]	Remaining Content (%) +Cofactor, 1 [1]	Remaining Content (%) +Cofactor, 2 [1]	Remaining Content (%) +Cofactor, 3 [1]	SMILES	Strength of drug interaction [2]	Inhibition of the activity of the drug transporter P-GP [3]	Formation of N-desmethyl metabolite ([1]; chicken liver microsomes, incubation for 60 min with NADPH cofactor, extracted ion chromatograms)
81.5 ± 13.8%	87.5%	65.7%	91.2%	48.9% and 48.9 ± 4.5%	46.4%	46.2%	54.1%	O=C1CC2(CCCC2)CC(=O)N1CCCCN1CCN(c2ncccn2)CC1 [BUS, buspirone]	–	–	–
86.6 ± 12.3%	100.7%	78.7%	80.3%	89.8% and 89.8 ± 21.5%	77.5%	77.3%	114.7%	CC[C@H]1OC(=O)[C@H](C)[C@@H](O[C@H]2C[C@@](C)(OC)[C@@H](O)[C@H](C)O2)[C@H](C)[C@@H](O[C@@H]2O[C@H](C)C[C@H](N(C)C)[C@H]2O)[C@](C)(OC)C[C@@H](C)C(=O)[C@H](C)[C@@H](O)[C@]1(C)O [CLA, clarithromycin]	strong	do not inhibit	cannot produce N-desmethyl-clarithromycin
94.8 ± 6.3%	99.0%	97.9%	87.6%	86.6% and 86.6 ± 6.5%	82.6%	83.1%	94.1%	CC[C@H]1OC(=O)[C@H](C)[C@@H](O[C@H]2C[C@@](C)(OC)[C@@H](O)[C@H](C)O2)[C@H](C)[C@@H](O[C@@H]2O[C@H](C)C[C@H](N(C)C)[C@H]2O)[C@](C)(O)C[C@@H](C)C(=O)[C@H](C)[C@@H](O)[C@]1(C)O [ERY, erythromycin A]	–	–	–
